{"source": "ChEMBL document CHEMBL1201862", "about": "“PubChem BioAssay data set” (2004)", "key": {"[1]": {"molecular_target": "Large T antigen (Simian virus 40, UniProt P03070)", "sequence (P03070 whole entry)": "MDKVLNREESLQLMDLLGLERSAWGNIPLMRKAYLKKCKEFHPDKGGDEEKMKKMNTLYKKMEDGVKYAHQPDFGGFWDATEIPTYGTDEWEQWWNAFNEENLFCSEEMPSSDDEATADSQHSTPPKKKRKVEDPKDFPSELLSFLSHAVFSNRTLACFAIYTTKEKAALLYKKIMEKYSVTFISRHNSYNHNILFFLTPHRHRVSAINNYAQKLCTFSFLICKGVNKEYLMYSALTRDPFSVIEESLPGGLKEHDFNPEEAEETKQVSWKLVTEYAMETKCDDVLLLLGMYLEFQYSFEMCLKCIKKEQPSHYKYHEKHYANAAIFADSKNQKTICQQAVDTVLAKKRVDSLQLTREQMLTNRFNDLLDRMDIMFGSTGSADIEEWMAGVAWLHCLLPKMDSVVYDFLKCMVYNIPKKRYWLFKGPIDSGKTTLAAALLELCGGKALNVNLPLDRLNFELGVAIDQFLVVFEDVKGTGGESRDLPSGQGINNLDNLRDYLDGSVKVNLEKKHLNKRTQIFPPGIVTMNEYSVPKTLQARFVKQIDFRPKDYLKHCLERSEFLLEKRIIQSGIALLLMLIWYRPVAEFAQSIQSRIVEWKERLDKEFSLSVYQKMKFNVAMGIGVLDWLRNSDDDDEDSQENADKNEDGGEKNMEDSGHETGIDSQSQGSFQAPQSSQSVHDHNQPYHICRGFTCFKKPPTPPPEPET", "type": "functional, Betapolyomavirus macacae"}, "[2]": {"molecular_target": "T1, 1-phosphatidylinositol 4,5-bisphosphate phosphodiesterase gamma-1 (Homo sapiens, UniProt P19174)", "T1 sequence (P19174 whole entry)": "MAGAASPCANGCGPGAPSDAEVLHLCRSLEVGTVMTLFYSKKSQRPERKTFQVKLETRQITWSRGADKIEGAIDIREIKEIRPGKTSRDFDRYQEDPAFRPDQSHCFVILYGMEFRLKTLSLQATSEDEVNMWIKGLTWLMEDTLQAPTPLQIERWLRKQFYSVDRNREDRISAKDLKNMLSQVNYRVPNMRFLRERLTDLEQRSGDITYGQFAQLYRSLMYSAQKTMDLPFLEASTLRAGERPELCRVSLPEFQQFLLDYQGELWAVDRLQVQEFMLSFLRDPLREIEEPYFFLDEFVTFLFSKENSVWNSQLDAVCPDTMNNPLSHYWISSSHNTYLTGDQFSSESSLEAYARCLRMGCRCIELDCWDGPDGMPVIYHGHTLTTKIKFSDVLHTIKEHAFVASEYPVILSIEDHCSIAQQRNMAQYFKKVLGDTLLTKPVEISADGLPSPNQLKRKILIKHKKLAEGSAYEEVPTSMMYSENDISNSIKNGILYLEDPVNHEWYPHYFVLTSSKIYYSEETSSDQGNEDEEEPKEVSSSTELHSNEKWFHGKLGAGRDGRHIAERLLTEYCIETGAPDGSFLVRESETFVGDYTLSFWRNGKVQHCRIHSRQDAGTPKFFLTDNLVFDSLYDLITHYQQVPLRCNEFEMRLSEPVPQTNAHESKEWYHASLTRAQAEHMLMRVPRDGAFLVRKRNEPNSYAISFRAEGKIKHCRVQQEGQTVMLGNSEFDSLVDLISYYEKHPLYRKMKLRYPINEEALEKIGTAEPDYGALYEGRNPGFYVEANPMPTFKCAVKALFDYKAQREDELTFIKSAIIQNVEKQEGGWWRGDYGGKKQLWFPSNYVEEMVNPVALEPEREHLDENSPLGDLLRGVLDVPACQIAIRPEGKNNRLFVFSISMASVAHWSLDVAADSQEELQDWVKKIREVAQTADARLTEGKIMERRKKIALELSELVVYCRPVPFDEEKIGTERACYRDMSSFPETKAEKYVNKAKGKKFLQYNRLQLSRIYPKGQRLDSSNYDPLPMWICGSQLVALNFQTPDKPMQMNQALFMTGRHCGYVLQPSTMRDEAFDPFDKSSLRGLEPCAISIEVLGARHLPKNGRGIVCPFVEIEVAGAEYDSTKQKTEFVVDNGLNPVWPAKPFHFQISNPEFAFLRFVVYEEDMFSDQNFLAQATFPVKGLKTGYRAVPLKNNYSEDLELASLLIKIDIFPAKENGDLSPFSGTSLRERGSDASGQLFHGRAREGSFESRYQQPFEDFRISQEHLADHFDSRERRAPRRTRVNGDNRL", "test": "Counterscreen for inhibitors of phospholipase C isozymes (PLC-B3): Fluorescence-based biochemical high throughput dose response assay to identify inhibitors of phospholipase C isozymes (PLC-gamma1)."}, "[3]": {"molecular_target": "T2, 1-phosphatidylinositol 4,5-bisphosphate phosphodiesterase beta-3 (Homo sapiens, UniProt Q01970)", "T2 sequence (Q01970 whole entry)": "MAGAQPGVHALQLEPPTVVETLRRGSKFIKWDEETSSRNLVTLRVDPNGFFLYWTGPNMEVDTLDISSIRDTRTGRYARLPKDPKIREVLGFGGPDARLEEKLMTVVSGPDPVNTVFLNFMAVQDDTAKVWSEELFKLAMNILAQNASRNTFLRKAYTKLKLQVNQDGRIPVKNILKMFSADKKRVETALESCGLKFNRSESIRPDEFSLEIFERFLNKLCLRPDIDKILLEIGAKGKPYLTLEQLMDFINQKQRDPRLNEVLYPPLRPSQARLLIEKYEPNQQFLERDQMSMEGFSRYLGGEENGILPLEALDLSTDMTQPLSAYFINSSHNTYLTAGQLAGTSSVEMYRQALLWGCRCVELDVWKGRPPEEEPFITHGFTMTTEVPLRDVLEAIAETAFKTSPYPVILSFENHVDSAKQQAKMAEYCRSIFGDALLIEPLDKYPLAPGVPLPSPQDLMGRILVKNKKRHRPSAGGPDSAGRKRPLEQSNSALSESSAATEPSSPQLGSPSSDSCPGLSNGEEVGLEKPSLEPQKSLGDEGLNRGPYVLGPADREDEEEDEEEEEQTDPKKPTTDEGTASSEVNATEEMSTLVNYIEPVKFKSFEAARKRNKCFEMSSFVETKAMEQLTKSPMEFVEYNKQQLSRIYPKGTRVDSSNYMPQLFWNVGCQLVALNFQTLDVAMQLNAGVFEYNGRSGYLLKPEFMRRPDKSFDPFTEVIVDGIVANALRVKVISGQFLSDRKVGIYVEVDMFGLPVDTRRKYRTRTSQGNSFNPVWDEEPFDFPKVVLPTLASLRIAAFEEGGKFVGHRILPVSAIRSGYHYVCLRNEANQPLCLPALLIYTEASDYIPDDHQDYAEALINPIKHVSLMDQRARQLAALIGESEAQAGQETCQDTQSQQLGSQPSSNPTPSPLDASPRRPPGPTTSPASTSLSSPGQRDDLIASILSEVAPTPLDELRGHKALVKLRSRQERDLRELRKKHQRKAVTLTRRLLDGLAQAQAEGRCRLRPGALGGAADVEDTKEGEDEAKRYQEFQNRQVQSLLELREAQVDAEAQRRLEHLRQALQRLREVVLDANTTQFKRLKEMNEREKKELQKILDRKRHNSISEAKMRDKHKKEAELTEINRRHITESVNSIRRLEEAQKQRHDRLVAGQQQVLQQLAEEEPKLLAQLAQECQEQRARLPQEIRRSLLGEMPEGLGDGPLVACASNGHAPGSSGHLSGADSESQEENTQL", "test": "Fluorescence-based biochemical high throughput dose response assay to identify inhibitors of phospholipase C isozymes (PLC-B3)."}, "[4]": {"system": "H9c2", "test": "cells", "type": "functional, cell-based", "conditions": "Rattus norvegicus, H9c2, Myocardium"}, "[5]": {"molecular_target": "Eukaryotic translation initiation factor 4E (Mus musculus, UniProt P63073)", "sequence (P63073 whole entry)": "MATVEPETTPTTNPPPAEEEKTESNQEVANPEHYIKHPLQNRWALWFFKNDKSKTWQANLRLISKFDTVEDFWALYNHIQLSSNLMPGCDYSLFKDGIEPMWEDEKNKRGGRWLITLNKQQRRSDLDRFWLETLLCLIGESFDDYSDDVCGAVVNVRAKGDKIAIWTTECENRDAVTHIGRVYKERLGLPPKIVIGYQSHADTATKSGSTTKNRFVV", "test": "eIF4E–eIF4G protein interaction inhibitors, dose response, biochemical, TR-FRET (AID 855);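 further: potency for disrupting eIF4E binding to eIF4GI seen as loss of FRET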", "type": "functional"}, "[6]": {"test": "A549 cell cytotoxicity, dose response, cytotoxicity control, plate reader, cherry-pick, antagonist series (AID 743412)", "type": "functional, cell-based"}, "[7]": {"test": "HepG2 cell cytotoxicity, dose response, cytotoxicity control, plate reader, cherry-pick, antagonist series (AID 743416)", "type": "functional, cell-based"}, "[8]": {"test": "LGR2 antagonists, dose response, cell-based, HEK293, CRE-luciferase reporter, cherry pick, set 2 (AID 743343);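 further: transfected cells were stimulated with diluted bursicon conditioned medium after compound addition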", "type": "functional"}, "[9]": {"test": "MC4R antagonists, dose response, counter-screen for LGR2 antagonist project, cell-based, plate reader, cherry pick (AID 743444);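 further: transfected HEK 293 cells stimulated with alpha-MSH peptide; potency of inhibitors of the alpha-MSH evoked signal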", "type": "functional"}, "[10]": {"test": "HEK293 cell cytotoxicity, dose response, cytotoxicity control, plate reader, cherry-picked samples (AID 743446)", "type": "functional, cell-based"}, "[11]": {"test": "P. falciparum 3D7-ScDHODH growth inhibitors, dose response, SYBR Green, dry powder samples (AID 1159570);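 further: parasite growth measured after 72 hours of compound exposure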", "type": "functional, cell-based"}, "[12]": {"test": "HepG2 cell cytotoxicity, dose response, cytotoxicity control, plate reader, dry powder samples (AID 1159569);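 further: inhibitor potency with signal falling toward the positive control level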", "type": "functional, cell-based"}, "[13]": {"test": "P. falciparum Dd2 growth inhibitors, dose response, SYBR Green, cherry-picked samples (AID 1159567)", "type": "functional, cell-based"}, "[14]": {"test": "P. falciparum Dd2 growth inhibitors, dose response, SYBR Green, dry powder samples (AID 1159566);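 further: potency for growth inhibition with lower SYBR green DNA signal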", "type": "functional, cell-based"}, "[15]": {"test": "P. falciparum ATP4 D1247Y mutant growth inhibitors, dose response, NITD609-resistant line, SYBR Green, dry powder (AID 1159571);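 further: parasites synchronized at ring stage by sorbitol before testing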", "type": "functional, cell-based"}, "[16]": {"test": "HepG2 cell cytotoxicity, dose response, cytotoxicity control, cherry-picked samples (AID 1159577)", "type": "functional, cell-based"}, "[17]": {"test": "P. falciparum Dd2 growth inhibitors, dose response, SYBR Green, dry powder samples, set 9 (AID 1159568)", "type": "functional, cell-based"}}, "note": "The source made the active and inactive calls."}
{"smiles": "O=C1NC(=S)S/C1=C\\c1ccc(SCc2ccccc2)o1", "values": [{"measurement": "IC50", "setting": "[1]", "result": "> 100 µM (active)"}, {"measurement": "IC50", "setting": "[2]", "result": "> 122 µM (inactive)"}, {"measurement": "IC50", "setting": "[3]", "result": "> 122 µM (inactive)"}]}
{"smiles": "O=C(COC(=O)c1ccccc1C(=O)OCC(=O)NCCc1c[nH]c2ccccc12)NCCc1c[nH]c2ccccc12", "values": [{"measurement": "IC50", "setting": "[4]", "result": "> 79 µM (inactive)"}, {"measurement": "IC50", "setting": "[2]", "result": "> 123 µM (inactive)"}, {"measurement": "IC50", "setting": "[3]", "result": "> 123 µM (inactive)"}]}
{"smiles": "CCNc1nc(NC(C)C)nc(Oc2ccc(OCCOc3ccccc3)nn2)n1", "values": [{"measurement": "IC50", "setting": "[5]", "result": "> 64 µM (inactive)"}]}
{"smiles": "C/N=C1/SC(CC(=O)NCCc2ccc(OC)c(OC)c2)C(=O)N1C", "note": "(configuration not stated)", "values": [{"measurement": "IC50", "setting": "[2]", "result": "> 122 µM (inactive)"}, {"measurement": "IC50", "setting": "[3]", "result": "> 122 µM (inactive)"}]}
{"smiles": "COc1ccc(-c2coc3c(C(=O)Nc4cc(OC)c(OC)c(OC)c4)cccc23)c(C)c1", "values": [{"measurement": "AC50", "setting": "[6]", "result": "9.94 µM (active)"}, {"measurement": "AC50", "setting": "[7]", "result": "18.3 µM (active)"}, {"measurement": "AC50", "setting": "[8]", "result": "1.2 µM (active)"}, {"measurement": "AC50", "setting": "[9]", "result": "0.905 µM (active)"}, {"measurement": "AC50", "setting": "[10]", "result": "15.3 µM (active)"}]}
{"smiles": "COc1ccccc1-c1ccc2c(c1)[C@@H]1[C@@H](CCN1C(=O)C1CCCCC1)[C@@H](CO)N2", "values": [{"measurement": "AC50", "setting": "[11]", "result": "0.488 µM (active)"}, {"measurement": "AC50", "setting": "[12]", "result": "11.1 µM (active)"}, {"measurement": "AC50", "setting": "[13]", "result": "1.74 µM (active)"}, {"measurement": "AC50", "setting": "[14]", "result": "0.283 µM (active)"}, {"measurement": "AC50", "setting": "[15]", "result": "0.498 µM (active)"}]}
{"smiles": "CCCc1cn(CC[C@@H]2CC[C@@H](NS(=O)(=O)c3ccc(-c4ccccc4)cc3)[C@@H](CO)O2)nn1", "values": [{"measurement": "AC50", "setting": "[11]", "result": "1.6 µM (active)"}, {"measurement": "AC50", "setting": "[12]", "result": "33.6 µM (active)"}, {"measurement": "AC50", "setting": "[13]", "result": "1.45 µM (active)"}, {"measurement": "AC50", "setting": "[14]", "result": "0.698 µM (active)"}, {"measurement": "AC50", "setting": "[16]", "result": "> 39 µM (inactive)"}, {"measurement": "AC50", "setting": "[15]", "result": "0.949 µM (active)"}]}
{"smiles": "COc1ccccc1S(=O)(=O)N(C)C[C@@H]1Oc2cc(/C=C/c3ccccc3)ccc2S(=O)(=O)N([C@H](C)CO)C[C@H]1C", "values": [{"measurement": "AC50", "setting": "[11]", "result": "0.466 µM (active)"}, {"measurement": "AC50", "setting": "[12]", "result": "81.6 µM (active)"}, {"measurement": "AC50", "setting": "[17]", "result": "0.443 µM (active)"}, {"measurement": "AC50", "setting": "[13]", "result": "0.459 µM (active)"}, {"measurement": "AC50", "setting": "[14]", "result": "0.22 µM (active)"}, {"measurement": "AC50", "setting": "[15]", "result": "0.215 µM (active)"}]}
{"smiles": "OC[C@@H]1[C@H](c2ccc(-c3ccc(F)cc3)cc2)[C@@H](CNC2CCCC2)N1CCC(F)(F)F", "values": [{"measurement": "AC50", "setting": "[11]", "result": "0.259 µM (active)"}, {"measurement": "AC50", "setting": "[12]", "result": "21.1 µM (active)"}, {"measurement": "AC50", "setting": "[17]", "result": "0.491 µM (active)"}, {"measurement": "AC50", "setting": "[13]", "result": "0.401 µM (active)"}, {"measurement": "AC50", "setting": "[14]", "result": "0.113 µM (active)"}, {"measurement": "AC50", "setting": "[16]", "result": "> 39 µM (inactive)"}, {"measurement": "AC50", "setting": "[15]", "result": "0.241 µM (active)"}]}
{"smiles": "CCCC#Cc1ccc2c(c1)O[C@@H](CN(C)Cc1ccncc1)[C@H](C)CN([C@@H](C)CO)S2(=O)=O", "values": [{"measurement": "AC50", "setting": "[13]", "result": "3.85 µM (active)"}, {"measurement": "AC50", "setting": "[16]", "result": "> 39 µM (inactive)"}]}
{"smiles": "O=C(Nc1ccc(F)cc1)N1CCCCN2[C@@H](CO)[C@H](c3ccc(C#Cc4ccccc4)cc3)[C@@H]2C1", "values": [{"measurement": "AC50", "setting": "[13]", "result": "< 0.3 µM (active)"}, {"measurement": "AC50", "setting": "[16]", "result": "7.42 µM (active)"}]}
{"smiles": "COc1ccc(-c2nc(-c3ccccc3)no2)c(OC)c1", "values": [{"measurement": "AC50", "setting": "[6]", "result": "28.4 µM (active)"}, {"measurement": "AC50", "setting": "[7]", "result": "47.6 µM (active)"}, {"measurement": "AC50", "setting": "[8]", "result": "0.621 µM (active)"}, {"measurement": "AC50", "setting": "[9]", "result": "1.05 µM (active)"}, {"measurement": "AC50", "setting": "[10]", "result": "31.9 µM (active)"}]}
